In PMC6916368, “Cell‐Based Optimization of Covalent Reversible Ketoamide Inhibitors Bridging the Unprimed to the Primed Site of the Proteasome β5 Subunit” (Chemmedchem, 2019):
Numbered stars: 1 amine (or outer) side, 2 acyl side, 3 side chain; on linkers, the order of the positions; unused ones are H or OH. Peptide text beside a SMILES is read from it. * marks the point of attachment. AMC = Cc1cc(=O)oc2cc(N*)ccc12; Suc = O=C(CCC(=O)[*:2])[*:1]; Cbz = O=C(OCc1ccccc1)*; OtBu = CC(C)(C)O*

System: proteasome in MV4‐11 cells
Test: Cellular conversion of fluorogenic proteasome substrates (assay validation)
Format: cell-based
Protocol: First, we benchmarked the fluorogenic substrate 30 towards the standard substrate 31 (Suc‐LLVY‐AMC) using varying substrate concentrations and cell numbers of MV4‐11 cells (Figure 5b). The highest substrate conversion was detected using 100 μM 30 in 50.000 cells (135 rfu/min) in MV4‐11 cells and was converted ∼4 times faster than 31 (33.3 rfu/min). There was an increase of differences in conversion rates with smaller number of cells (10.000 cells, 100 μM substrate: 10‐fold conversion) and lower substrate concentration (50.000 cells, 25 μM substrate: 15‐fold conversion).
In‐cell determination of proteasome IC 50. […] Inhibitors were serially diluted in RPMI‐1640 medium as 10‐fold stocks, added to cells giving final concentrations and incubated for 0 h–13 h at 37 °C and 5 % CO2 (Figure S5–S8). Substrate was added to give a final concentration of 30 μM and substrate conversion was detected by fluorescence measurement over 100 min (assay validation) or 60 min (inhibition assays) using a Tecan M1000 microplate reader. Rate of fluorescence change over time was calculated, rates for negative (no‐cell) control was subtracted and normalized to positive control (no inhibitor). Dose‐response curves were fitted to the equation “Y=100/(1+10^((L°^gIC50−X)*HillSl°^pe))” using GraphPad Prism 7.02 (SI chapter 2b, Figure S2–S4).

[1] = 100 μM substrate, 50.000 MV4‐11 cells

Row | Structure (SMILES) | conversion of 30 relative to 31 [1] | substrate conversion [1] | conversion of 30 relative to 31 (10.000 cells, 100 μM substrate) | conversion of 30 relative to 31 (50.000 cells, 25 μM substrate)
1 | Cc1cc(=O)oc2cc(NC(=O)[C@H](C)NC(=O)[C@H](CC(=O)OC(C)(C)C)NC(=O)[C@H](CC(C)C)NC(=O)OCc3ccccc3)ccc12 [Compound 30, Z‐LD(OtBu)A‐AMC] (Cbz-Leu-Asp(OtBu)-Ala-{AMC}) | ~4 times | 135 rfu/min | 10 fold | 15 fold
2 | Cc1cc(=O)oc2cc(NC(=O)[C@H](Cc3ccc(O)cc3)NC(=O)[C@@H](NC(=O)[C@H](CC(C)C)NC(=O)[C@H](CC(C)C)NC(=O)CCC(=O)O)C(C)C)ccc12 [Compound 31, Suc‐LLVY‐AMC] (Suc-LLVY-{AMC}) |  | 33.3 rfu/min |  | 
